Source: patent publication US6639023B1, “Fluorophenyl resin compounds” (Aventis Pharmaceuticals Inc., priority 1998, dated 2003)

Molecular target: Factor Xa (Homo sapiens, UniProt P00742)
Assay: IC50 against Factor Xa
Format: biochemical

Chain of Factor Xa (P00742 235-488 limits assumed): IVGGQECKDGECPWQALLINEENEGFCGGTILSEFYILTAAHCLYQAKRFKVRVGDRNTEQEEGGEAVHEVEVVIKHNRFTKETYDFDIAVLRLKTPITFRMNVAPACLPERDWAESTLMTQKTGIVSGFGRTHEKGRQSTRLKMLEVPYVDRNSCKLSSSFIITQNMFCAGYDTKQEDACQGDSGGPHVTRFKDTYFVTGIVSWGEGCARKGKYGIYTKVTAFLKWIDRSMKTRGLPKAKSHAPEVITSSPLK
Chain of Factor Xa (P00742 41-179 partner limits assumed): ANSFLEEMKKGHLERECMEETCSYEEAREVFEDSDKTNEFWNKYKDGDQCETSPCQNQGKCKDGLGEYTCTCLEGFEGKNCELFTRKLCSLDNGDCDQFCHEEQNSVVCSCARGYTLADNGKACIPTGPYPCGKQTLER

Question: With `O=C1[C@@H](NS(=O)(=O)c2cc3ccc(Cl)cc3s2)CCN1Cc1cc2ncccc2[nH]1` [Example 24] as the molecule, how does the IC50 read?
Answer: < 500 nM
